Measured values from US20180243421A1, “IMMUNOSTIMULATING AGENT” (AJINOMOTO CO., INC., priority 2015, published 2018).

Tests used:
Format in all cases: in vivo, BALB/c mice
[1] = tested on: anti-OVA-specific IgG2a subclass antibody; assay: Adjuvant activity: anti-OVA-specific IgG2a subclass antibody in serum after secondary immunization
Procedure: Two weeks from the secondary immunization, the whole blood was extracted under anesthesia, and the obtained serum sample was measured for anti-OVA-specific IgG1 subclass antibody.
Measurement Method of anti-OVA-specific IgG2a Subclass Antibody
To a 96 well plate was added 5 μg/ml OVA at 100 μl/well, and the mixture was incubated at 4° C. overnight. After incubation, the mixture was washed three times with 200 μl of PBS-T (PBS+0.05%(v/v) Tween 20) per well, and blocked with 100 μl of 5% FCS/PBS solution per well at room temperature for 1 to 2 hr. Thereafter, the mixture was washed three times with PBS-T (200 μl/well), a diluted serum sample (100 μl/well) or the same amount of 5% FCS/PBS solution as a control was added, and the mixture was incubated at 37° C. for 1 hr. Thereafter, the mixture was washed five times with PBS-T (200 μl/well), a diluted biotinylated anti-mouse IgG2a antibody (100 μl/well) was added, and the mixture was incubated at 37° C. for 45 min. Thereafter, the mixture was washed five times with PBS-T (200 μl/well), a diluted anti-biotin-HRP antibody was added (100 μl/well), and the mixture was incubated at 37° C. for another 30 min. Thereafter, the mixture was washed five times with PBS-T (200 μl/well), TMB substrate solution was added (100 μl/well), and the mixture was incubated at room temperature for 10-15 min. Thereafter, a reaction quenching liquid (2N sulfuric acid solution) was added (50 μl/well) to discontinue a color developing reaction, and the absorbance (OD Value=450 nm) was measured by a microplate reader.
Measurement Method of Concentration of anti-OVA-specific IgG1 Subclass Antibody and anti-OVA-specific IgG2a Subclass Antibody
To a 96 well plate was added 5 μg/ml OVA at 100 μl/well, and the mixture was incubated at 4° C. overnight. After incubation, the mixture was washed three times with 200 μl of PBS-T (PBS+0.05% (v/v) Tween 20) per well, and blocked with 100 μl of 5% FCS/PBS solution per well at room temperature for 1 to for 2 hr. […] When an anti-OVA-specific IgG2a subclass antibody was measured, the standard of an anti-OVA-specific IgG2a subclass antibody was added at 50 ng/ml, 25 ng/ml, 12,5 ng/ml, 6.25 ng/ml, 3.125 ng/ml, 1.56 ng/ml, 0.781 ng/ml, 0.391 ng/ml, 0.195 ng/ml, 0.098 ng/ml, 0.049 ng/ml, 0 ng/ml, per 1 well. […] Thereafter, a reaction quenching liquid (2N sulfuric acid solution) was added (50 μl/well) to discontinue a color developing reaction, and the absorbance (OD Value=450 nm) was measured by a microplate reader. A standard curve was drawn from the measured OD values, and the concentration was calculated.

[2] = tested on: IL-4; assay: Th2 response: IL-4 production from lymph node cells of immunized mice restimulated with OVA; conditions: Example 10; s.c. OVA 10 μg + 0.256 μmol in 5% αCD saline (Addavax 1:1); groin lymph node ten days later; 0.1-100 μg OVA, 40 hr, ELISA
Procedure: (§1) Ten days later, groin lymph node was collected from all mice of the above-mentioned (1) to (4), lymph node cells were isolated and cultured in 10% FBS-containing RPMI1640 medium. Thereto was added 0.1 μg, 1 μg, 10 μg, 100 μg of OVA, respectively, 40 hr later, cell supernatant was recovered, and IFN-γ and IL-4 in the supernatant were measured by ELISA.

[3] = tested on: IFN-γ; assay: Th1 response: IFN-γ production from lymph node cells of immunized mice restimulated with OVA; conditions: Example 10; s.c. OVA 10 μg + 0.256 μmol in 5% αCD saline (Addavax 1:1); groin lymph node ten days later; 0.1-100 μg OVA, 40 hr, ELISA
Procedure: as §1

[4] = tested on: anti-OVA-specific IgG1 subclass antibody; assay: Adjuvant activity: anti-OVA-specific IgG1 subclass antibody in serum after secondary immunization (Examples 12, 19, 20, 21); conditions: Example 21; s.c.; SZ62 0.256 μmol in 5% αCD saline, CpG 5 μg, MPL 5 μg, Addavax 1:1, Alum; two weeks from secondary immunization
[5] = tested on: anti-influenza IgA antibody; assay: Transnasal influenza vaccine adjuvant activity: anti-influenza IgA antibody in nasal cavity wash; conditions: Example 4, influenza HA vaccine 20 μl, SZ62 1 μg, Poly(I:C) 5 μg, two weeks from secondary immunization
[6] = Example 2, serum sample of Example 1

CCCCCCCCCCCCCCCC(=O)NC(=N)NCCCCN [SZ62, N-hexadecanoylagmatine]
adjuvant activity (IgG2a) compared with Alum [1, 6]: equivalent to that of Alum | anti-OVA-specific IgG2a subclass antibody production as compared to the OVA single administration group [1, 6]: significantly increased | anti-OVA-specific IgG2a subclass antibody production as compared to the OVA single administration group ([1]; Example 21, s.c., SZ62 0.256 μmol in 5% αCD saline, CpG 5 μg, MPL 5 μg, Addavax 1:1, Alum, two weeks from secondary immunization): tended to increase | IL-4 production from lymph node cells [2]: did not show an increase | IFN-γ production from lymph node cells [3]: increased in an OVA volume dependent manner | anti-OVA-specific IgG1 subclass antibody production as compared to the OVA single administration group [4]: tended to increase | anti-influenza IgA antibody production in nasal cavity wash as compared to the influenza vaccine single administration group [5]: significantly increased
